Experimental data: patent US6465466B1, “Uses of indolo-2 [2,3b] -quinoxalines” (priority 1995, dated 2002)
Blank lines part the entries; values can stand above or below the molecule they belong to.

How the values were obtained:
[1] = test system: regeneration of liver tissue; assay: In vivo toxicity: liver regeneration after partial hepatectomy (liver-somatic index); parameters: species or system rats
Procedure: The in vivo toxicity of B-220 was tested in rats. A portion of the liver was removed (partial hepatectomy, PH) by surgery and the regeneration of liver tissue was studied. The regeneration was measured as liver-somatic index (LSI), in other words, the relative liver weight in percent of the body weight.
AAF (2-acetylaminofluorene) is a very toxic substance which acts as a mito-inhibitor, i.e. inhibits cell division of normal liver cells.
The results are shown in FIG. 3 wherein LSI is plotted against days after partial hepatectomy.

bacterial strain TA 100 = assay: Ames test, mutagenicity of MMS and EMS with and without B-220; format: cell-based, Salmonella; settings: for mutagenicity of the mutagen alone (revertants/plate): TA 100, without B-220
Procedure: The following example illustrates the fact that compound B-220 reduces the mutagenicity of potent mutagens in the bacterial mutagenicity test, the “Ames test”. In the test the bacterial strain TA 100 was used. […] These mutagens were MMS=Methylmethanesulphonate and EMS=Ethylmethanesulphonate. The results of the experiments carried out are shown graphically in FIGS. 2a and 2b. In the Figures revertants/plate, is plotted against microgram MMS and EMS, respectively, plus 70 μg B-220.

test strain TA100 = assay: Ames test, mutagenic potential of the substances, test strain TA100; format: cell-based, Salmonella; settings: for anti-mutagenic potential (reduction of spontaneous background): TA100; for mutagenic potential (revertants/plate): TA100, with and without S9
Excerpt: This example illustrates the mutagenic potential in the bacterial mutagenicity test, “Ames test”, with test strain TA100, of B-220 (FIG. 1a) and 9-OH-B-220 (FIG. 1b). S9 indicates the presence […] or absence (−S9) of a cellular enzymatic fraction capable to metabolize the tested substances. The metabolic activation is a liver fraction containing enzymes needed in metabolism. In the Figures revertants/plate, an intensity measurement of mutagenic activity, is plotted against μg B-220 and μg 9-OH-B-220.

skin tumors = assay: Skin tumor model, DMBA initiation and TPA promotion; format: in vivo, mice
Procedure: The compounds used according to the present invention have been tested as regards the formation of tumors (skin tumors) for mice subjected to strong tumor initiating and strong tumor promotion conditions. […] Furthermore, if the administration of the compound used according to the present invention is terminated, the animals will develop the same number of tumors as in the positive control. This means that the original DNA injury remains and the tumor promoter which is administered continuously can give rise to a considerable development of tumors. Accordingly a compound used according to the present invention can stop the tumor process caused by potent tumor promoting agents in combination with potent tumor initiators.
This example illustrates a tumor model which is based on in vivo tumor initiation with one does of dimethylbenzanthracene (DMBA) where after, a potent tumor promoter […] (TPA) was administered twice a week. After a number of weeks the skin tumors can be detected and followed during the study, After approximately 100 days (A) the positive controls reached the maximum, where after the total number declines due to the behavior of the animals. […] After six months exposure of B-220+TPA in the B-220 group, B-220 was no longer administered (B).

[2] = test system: human cell cultures of phagocytes; assay: Luminol chemiluminescence in human phagocyte cultures; format: cell-based; settings: dose dependent; intracellular, also seen extracellular; same effect as salt and free base
Excerpt: In this test the effects of “B220” have been exposed to human cell cultures of phagocytes. Luminol reacts with the markers for oxidative stress, hydrogen peroxide or the superoxide ion, and generates light. […] “B220” has the same effect both in the form of salt and the free base.

[3] = Whole body gamma-irradiation of mice; format: in vivo
Procedure: Gamma-irradiation is a very potent agent which can induce oxidative stress, reduce body weight gain and shorten life span. In FIG. […] The human LD50 of gamma-irradiation os approximately 3 Gy.
“B220” was administered intra peritoneal in corn oil 24 and 3 h before the irradiation.
The body weight gain of each group is shown as percent of the body weight at the time of irradiation. A lower body weight gain is an indicator of a shorter life span in the long term perspective. Gamma-irradiation is a way to induce a premature aging which is also seen as gray fur in these mice.

[4] = test system: 8-hydroxy-2'-deoxyguanosine (8-OH-dG); assay: 8-OH-dG formation in DNA after oral 2,7-dinitrofluorene; format: in vivo; settings: rats pre-treated with B220, 2,7-dNF orally
Excerpt: Oxidation of deoxyguanosine (dG), one of the bases in DNA, is an oxidative lesion of DNA related to oxidative stress. The reaction product between free radicals and dG is 8-hydroxy-2′-deoxyguanosine (8-OH-dG). This biomarker is a reaction product found in DNA, i.e. the oxidative stress is not only found as oxidants in the circulation or in the cytoplasm, but reaches the nucleus and reacts with DNA. In FIG. 8 results are shown when the urban air pollutant (result of incomplete combustion of fuels of vehicles) and carcinogen 2,7-dinitrofluorene (2,7-dNF) was administered orally to rats. In the metabolism, reactive intermediates were formed that oxidized dG to 8-OH-dG.

melting point: 269 to 270 °C
Structure (SMILES): CN(C)CCn1c2ccc(O)cc2c2nc3ccccc3nc21

Structure (SMILES): CC(=O)Nc1ccc2c(c1)Cc1ccccc1-2 [AAF, 2-acetylaminofluorene, reference compound]
regeneration of liver tissue (liver-somatic index, LSI) ([1]; rats, days after partial hepatectomy): very slow

Structure (SMILES): CCOS(C)(=O)=O [EMS, Ethylmethanesulphonate, reference compound]
mutagenicity of the mutagen alone (revertants/plate) (bacterial strain TA 100): strong mutagen

Structure (SMILES): Cc1cc2nc3c4cc(O)ccc4n(CCN(C)C)c3nc2cc1C [Example 9-OH-B-220, 2,3-Dimethyl-6-(2-dimethylaminoethyl)-9-hydroxy-6H-indolo[2,3-b]-quinoxaline]
anti-mutagenic potential (reduction of spontaneous background) (test strain TA100): anti-mutagenic
mutagenic potential (revertants/plate) (test strain TA100): non-mutagenic

Structure (SMILES): Cc1cc2nc3c4ccccc4n(CCN(C)C)c3nc2cc1C [Example B-220]
anti-mutagenic potential (reduction of spontaneous background) (test strain TA100): anti-mutagenic
mutagenic potential (revertants/plate) (test strain TA100): non-mutagenic
mutagenicity of EMS when B-220 is added (bacterial strain TA 100; TA 100, EMS plus 70 μg B-220): reduced the mutagenicity but not as much as for MMS
mutagenicity of MMS when B-220 is added (bacterial strain TA 100; TA 100, MMS plus 70 μg B-220): the mutagenicity disappears
regeneration of liver tissue (liver-somatic index, LSI) ([1]; rat, in vivo): no difference from the controls
toxic effects in vivo ([1]; rat, in vivo): did not show any toxic effects
skin tumors (skin tumors; after six months of B-220+TPA): very slight increase in tumors
skin tumors after B-220 no longer administered (skin tumors; after six months, TPA continued, B-220 stopped): rapid increase of tumors
skin tumors (skin tumors; approximately 100 days, B-220 one hour before TPA, DMBA-initiated): no tumors at all
carcinogenicity (skin tumors; skin tumor model): not a carcinogen
formation of hydrogen peroxide and superoxide ion generated by oxidase (chemiluminescence) [2]: down regulates and even eliminates
protective effect (life span) ([3]; 8 Gy, administration after irradiation): protective effect similar to pre-treatment
protective effect (increased life span) ([3]; 8 Gy, intra peritoneal in corn oil 24 and 3 h before irradiation): protective effect
protective effect (life span) ([3]; 14 Gy, intra peritoneal in corn oil 24 and 3 h before irradiation): no protective effect
body weight gain ([3]; lower doses, 1 and 6 Gy): increased body weight gain
oxidative stress (8-OH-dG in DNA) [4]: down-regulated to levels lower than the controls

Structure (SMILES): COS(C)(=O)=O [MMS, Methylmethanesulphonate, reference compound]
mutagenicity of the mutagen alone (revertants/plate) (bacterial strain TA 100): strong mutagen
